In patent US12527849B2, “Apparatus for determining administration form of a composition of an engineered virus-based nanoparticle for a treatment of an autoimmune condition” (Diamante Srl, priority 2021, dated 2026):

Tests used:
Assay type in all cases: in vivo
IL-10 = test: Cytokine ELISA in CIA mice, day 60: IL-10; conditions: serum pooled from five CIA mice
Description: (§1) With continued reference to FIG. 1, in some embodiments, administration 116 may be done to an animal. As a non-limiting example, the animal may include a mouse, a fish, a rabbit, human, and the like. As a non-limiting example, administration 116 of composition of the engineered virus-based nanoparticle for a treatment of an autoimmune condition may be done to dilute, brown, and non-agouti (DBA) mice based on their susceptibility to collagen-induced arthritis (CIA). Female DBA/1 mice 6 to 8 weeks of age may be maintained under specific pathogen-free conditions. CIA may be induced by the intradermal tail base injection of 100 μg of chicken type II collagen (Sigma-Aldrich) as previously described. Five mice per group may be immunized on days 0 and 21 to induce arthritis. The onset of disease may be confirmed on the day that swelling or erythema may be observed in any paw, typically 4 to 10 days after the second immunization. Each experimental group may be treated seven times, 5 days apart, starting from day 28 after the first immunization, with intraperitoneal injections of saline (200 μI per mouse), TBSV·pLIp1, TBSV·pFADK2, pLIp1+IFA, and pFADK2+IFA (all 50 μg per mouse in 200 μl) or dexamethasone (5 μg per mouse in 200 μl). […] CIA may be assessed using a macroscopic score system based on the visual identification of arthritic limbs.

IL-17A = test: Cytokine ELISA in CIA mice, day 60: IL-17A
Description: as §1, with “immunization.” for “immunization. Each experimental group may be treated seven times, 5 days apart, starting from day 28 after the first immunization, with intraperitoneal injections of saline (200 μI per mouse), TBSV·pLIp1, TBSV·pFADK2, pLIp1+IFA, and pFADK2+IFA (all 50 μg per mouse in 200 μl) or dexamethasone (5 μg per mouse in 200 μl).”, “limbs. The clinical severity of arthritis may be evaluated as follows: Each mouse may be inspected every 2 to 3 days for three different parameters: (i) swelling of the hind ankle and foot, measured with calipers; (ii) erythema of each leg; and (iii) swelling of the fingers. The RA index for each mouse was expressed as the mean of the three scores from the individual parameters. At the end of the experiment (60 days), we determined the proportion of CD25+Foxp3+ cells in the lymph nodes and measured cytokine titers in the lymph nodes, joints, and serum.” for “limbs.”
(§2) With continued reference to FIG. 1, in some embodiments, processor 104 may determine critical administration 124 as a function of a cytokine profile and a proportion of CD25^+ Foxp3^+ cells. […] In some embodiments, to quantify cytokines in DBA mice, joint tissues may be pulverized and resuspended in 1 ml of lysis medium per 100-mg joint weight for 60 min at 37′C, followed by centrifugation to remove debris. […]

IL-1β = test: Cytokine ELISA in CIA mice, day 60: IL-1β
Description: as §1, with “immunization.” for “immunization. Each experimental group may be treated seven times, 5 days apart, starting from day 28 after the first immunization, with intraperitoneal injections of saline (200 μI per mouse), TBSV·pLIp1, TBSV·pFADK2, pLIp1+IFA, and pFADK2+IFA (all 50 μg per mouse in 200 μl) or dexamethasone (5 μg per mouse in 200 μl).”, “limbs. The clinical severity of arthritis may be evaluated as follows: Each mouse may be inspected every 2 to 3 days for three different parameters: (i) swelling of the hind ankle and foot, measured with calipers; (ii) erythema of each leg; and (iii) swelling of the fingers. The RA index for each mouse was expressed as the mean of the three scores from the individual parameters. At the end of the experiment (60 days), we determined the proportion of CD25+Foxp3+ cells in the lymph nodes and measured cytokine titers in the lymph nodes, joints, and serum.” for “limbs.”
as §2

[1] = joint supernatant, CIA mice, day 60, mean n=3
[2] = lymph node supernatant, CIA mice, day 60, mean n=3
[3] = serum pooled from five CIA mice, day 60

Question: How did the IL-10 (IL-10) turn out when `C[C@@H]1C[C@H]2[C@@H]3CCC4=CC(=O)C=C[C@]4(C)[C@@]3(F)[C@@H](O)C[C@]2(C)[C@@]1(O)C(=O)CO` [Dexamethasone, dexamethasone] was run?
Answer: The IL-10 was 71.6 pg/mL.

Question: What about the “IL-17A J” value (IL-17A; [1]) of the same molecule?
Answer: The value was 1219.43 pg/mL.

Question: And the “IL-17A LN” value (IL-17A; [2])?
Answer: Its value is 1540.40 pg/mL.

Question: And the “IL-17A S” value (IL-17A; [3])?
Answer: The value was 313.8 pg/mL.

Question: What about the “IL-1β J” value (IL-1β; [1]) of the same molecule?
Answer: Its value is 38.43 pg/mL.

Question: And the “IL-1β LN” value (IL-1β; [2])?
Answer: The value was 65.63 pg/mL.

Question: And the “IL-1β S” value (IL-1β; [3])?
Answer: Its value is 26.6 pg/mL.
